Measurements taken from patent US20100285959A1, “HERBICIDAL MIXTURES” (priority 2006, published 2010).

Assays:
flint corn (ZEAMI) = assay: Test 12 field trial, preemergence; type: in vivo, Zea mays L. ssp. indurata; conditions: Cpd 2 or Cpd 1 62 g a.i./ha, Diuron 2000 g a.i./ha
Text: (§1) In early-mid spring season, corn seeds (hybrid ‘Pioneer 3041’) were planted 5 cm deep and sugarcane nodes (variety RB-72.454) were planted 10 cm deep in separate plots in a clay soil having 2.6% organic matter and a pH of 5.6. Plots were 24 m long by 1.5 m wide with rows spaced 80 cm (corn) or 140 cm (sugarcane) apart. Corn seeds were spaced 15 cm apart and sugarcane nodes were spaced 10 cm apart within the rows. At the same time, weed seeds were broadcast over the surface of separate plots without a crop, one weed species per plot. The weed plots were rotary tilled to incorporate the weed seeds to a variety of depths. The field was managed using conventional tillage practices.

common sugarcane (SACOF) = assay: Test 12 field trial, preemergence; type: in vivo, Saccharum officinarum; conditions: Cpd 2 or Cpd 1 62 g a.i./ha, Diuron 2000 g a.i./ha
Text: as §1

slender amaranth (AMAVI) = assay: Test 12 field trial, preemergence; type: in vivo, Amaranthus viridis; conditions: Cpd 2 or Cpd 1 62 g a.i./ha, Diuron 2000 g a.i./ha
Text: as §1

common blackjack (BIDPI) = assay: Test 12 field trial, preemergence; type: in vivo, Bidens pilosa; conditions: Cpd 2 or Cpd 1 62 g a.i./ha, Diuron 2000 g a.i./ha
Text: as §1

[1] = test system: broadleaf buttonweed (BOILF); assay: Test 12 field trial, preemergence; type: in vivo, Borreria latifolia; conditions: Cpd 2 or Cpd 1 62 g a.i./ha, Diuron 2000 g a.i./ha
Text: as §1

sicklepod (CASOB) = assay: Test 12 field trial, preemergence; type: in vivo, Cassia obtusifolia; conditions: Cpd 2 or Cpd 1 62 g a.i./ha, Diuron 2000 g a.i./ha
Text: as §1

[2] = test system: tropical spiderwort (COMBE); assay: Test 12 field trial, preemergence; type: in vivo, Commelina benghalensis; conditions: Cpd 2 or Cpd 1 62 g a.i./ha, Diuron 2000 g a.i./ha
Text: as §1

[3] = test system: Florida beggarweed (DEDTO); assay: Test 12 field trial, preemergence; type: in vivo, Desmodium tortuosum; conditions: Cpd 2 or Cpd 1 62 g a.i./ha, Diuron 2000 g a.i./ha
Text: as §1

wild poinsettia (EPHHL) = assay: Test 12 field trial, preemergence; type: in vivo, Euphorbia heterophylla; conditions: Cpd 2 or Cpd 1 62 g a.i./ha, Diuron 2000 g a.i./ha
Text: as §1

[4] = test system: Ipomoea grandiflora (IPOGF); assay: Test 12 field trial, preemergence; type: in vivo; conditions: Cpd 2 or Cpd 1 62 g a.i./ha, Diuron 2000 g a.i./ha
Text: as §1

wild spikenard (HPYSU) = assay: Test 12 field trial, preemergence; type: in vivo; conditions: Cpd 2 or Cpd 1 62 g a.i./ha, Diuron 2000 g a.i./ha
Text: as §1

common purslane (POROL) = assay: Test 12 field trial, preemergence; type: in vivo, Portulaca oleracea; conditions: Cpd 2 or Cpd 1 62 g a.i./ha, Diuron 2000 g a.i./ha
Text: as §1

arrowleaf sida (SIDRH) = assay: Test 12 field trial, preemergence; type: in vivo, Sida rhombifolia; conditions: Cpd 2 or Cpd 1 62 g a.i./ha, Diuron 2000 g a.i./ha
Text: as §1

[5] = test system: Italian cocklebur (XANSI); assay: Test 12 field trial, preemergence; type: in vivo, Xanthium strumarium ssp. italicum; conditions: Cpd 2 or Cpd 1 62 g a.i./ha, Diuron 2000 g a.i./ha
Text: as §1

velvetleaf (ABUTH) [6] = assay: Test 16 greenhouse, post- and preemergence; conditions: 15 DAA
winter wheat (TRZAW) = assay: Test 27 field trial, postemergence; type: in vivo, Triticum aestivum; conditions: in vivo
Text: (§2) Wheat seeds (cv. ‘Custer’) were planted in late fall season in a clay loam soil. Plots were 9 m long by 1.8 m wide. The field was managed using conventional tillage practices. […] All treatments also included a surfactant. […] Results are the means of the three replicates.

kochia (KCHSC) = assay: Test 27 field trial, postemergence; type: in vivo, Kochia scoparia; set-up: scale not given here; conditions: tribenuron-methyl 10 g a.i./ha
Text: as §2

velvetleaf (ABUTH) [7] = assay: Test 18 greenhouse, post- and preemergence; conditions: 15 DAA

SMILES: CN(C)C(=O)Nc1ccc(Cl)c(Cl)c1 [Diuron]
- ZEAMI Obs (flint corn (ZEAMI); 15 DAA): 20%
- ZEAMI Obs (flint corn (ZEAMI); 29 DAA): 20%
- ZEAMI Obs (flint corn (ZEAMI); 48 DAA): 20%
- ZEAMI Obs (flint corn (ZEAMI); 61 DAA): 25%
- SACOF Obs (common sugarcane (SACOF); 15 DAA): 0
- SACOF Obs (common sugarcane (SACOF); 29 DAA): 0
- SACOF Obs (common sugarcane (SACOF); 48 DAA): 0
- SACOF Obs (common sugarcane (SACOF); 61 DAA): 5
- AMAVI Obs (slender amaranth (AMAVI); 15 DAA): 100
- AMAVI Obs (slender amaranth (AMAVI); 29 DAA): 100
- AMAVI Obs (slender amaranth (AMAVI); 48 DAA): 100
- AMAVI Obs (slender amaranth (AMAVI); 61 DAA): 100
- BIDPI Obs (common blackjack (BIDPI); 15 DAA): 100
- BIDPI Obs (common blackjack (BIDPI); 29 DAA): 100
- BIDPI Obs (common blackjack (BIDPI); 48 DAA): 100
- BIDPI Obs (common blackjack (BIDPI); 61 DAA): 100
- BOILF Obs ([1]; 15 DAA): 99
- BOILF Obs ([1]; 29 DAA): 100
- BOILF Obs ([1]; 48 DAA): 100
- BOILF Obs ([1]; 61 DAA): 95
- CASOB Obs (sicklepod (CASOB); 15 DAA): 90
- CASOB Obs (sicklepod (CASOB); 29 DAA): 90
- CASOB Obs (sicklepod (CASOB); 48 DAA): 60
- CASOB Obs (sicklepod (CASOB); 61 DAA): 40
- COMBE Obs ([2]; 15 DAA): 99
- COMBE Obs ([2]; 29 DAA): 100
- COMBE Obs ([2]; 48 DAA): 100
- COMBE Obs ([2]; 61 DAA): 100
- DEDTO Obs ([3]; 15 DAA): 100
- DEDTO Obs ([3]; 29 DAA): 100
- DEDTO Obs ([3]; 48 DAA): 100
- DEDTO Obs ([3]; 61 DAA): 95
- EPHHL Obs (wild poinsettia (EPHHL); 15 DAA): 60
- EPHHL Obs (wild poinsettia (EPHHL); 29 DAA): 40
- EPHHL Obs (wild poinsettia (EPHHL); 48 DAA): 20
- EPHHL Obs (wild poinsettia (EPHHL); 61 DAA): 40
- IPOGF Obs ([4]; 15 DAA): 80
- IPOGF Obs ([4]; 29 DAA): 80
- IPOGF Obs ([4]; 48 DAA): 40
- IPOGF Obs ([4]; 61 DAA): 40
- HPYSU Obs (wild spikenard (HPYSU); 15 DAA): 75
- HPYSU Obs (wild spikenard (HPYSU); 29 DAA): 60
- HPYSU Obs (wild spikenard (HPYSU); 48 DAA): 40
- HPYSU Obs (wild spikenard (HPYSU); 61 DAA): 20
- POROL Obs (common purslane (POROL); 15 DAA): 100
- POROL Obs (common purslane (POROL); 29 DAA): 100
- POROL Obs (common purslane (POROL); 48 DAA): 100
- POROL Obs (common purslane (POROL); 61 DAA): 100
- SIDRH Obs (arrowleaf sida (SIDRH); 15 DAA): 100
- SIDRH Obs (arrowleaf sida (SIDRH); 29 DAA): 100
- SIDRH Obs (arrowleaf sida (SIDRH); 48 DAA): 100
- SIDRH Obs (arrowleaf sida (SIDRH); 61 DAA): 100
- XANSI Obs ([5]; 15 DAA): 60
- XANSI Obs ([5]; 29 DAA): 40
- XANSI Obs ([5]; 48 DAA): 40
- XANSI Obs ([5]; 61 DAA): 40

SMILES: O=C(O)c1cc(Oc2ccc(C(F)(F)F)cc2Cl)ccc1[N+](=O)[O-] [Acifluorfen]
- Obs response, scale 0 to 100 (velvetleaf (ABUTH) [6]; Postemergence, 7.5 g a.i./ha): 0
- Obs response, scale 0 to 100 (velvetleaf (ABUTH) [6]; Postemergence, 15 g a.i./ha): 0
- Obs response, scale 0 to 100 (velvetleaf (ABUTH) [6]; Postemergence, 30 g a.i./ha): 0
- Obs response, scale 0 to 100 (velvetleaf (ABUTH) [6]; Preemergence, 7.5 g a.i./ha): 0
- Obs response, scale 0 to 100 (velvetleaf (ABUTH) [6]; Preemergence, 15 g a.i./ha): 2
- Obs response, scale 0 to 100 (velvetleaf (ABUTH) [6]; Preemergence, 30 g a.i./ha): 2

SMILES: COC(=O)c1ccccc1S(=O)(=O)NC(=O)N(C)c1nc(C)nc(OC)n1 [Tribenuron-methyl]
- TRZAW Obs (winter wheat (TRZAW); cv. Custer, Triticum aestivum (winter wheat), 16 days after application): 0
- TRZAW Obs (winter wheat (TRZAW); cv. Custer, Triticum aestivum (winter wheat), 28 days after application): 0
- TRZAW Obs (winter wheat (TRZAW)): 0
- KCHSC Obs (kochia (KCHSC); 16 DAA): 22
- KCHSC Obs (kochia (KCHSC); 28 DAA): 23
- KCHSC Obs (kochia (KCHSC); 49 DAA): 22

SMILES: C#CCOc1cc(-n2nc3n(c2=O)CCCC3)c(Cl)cc1Cl [Azafenidin]
- Postemergence ABUTH Obs (velvetleaf (ABUTH) [7]; alone at 7.5 g a.i./ha): 46
- Preemergence ABUTH Obs (velvetleaf (ABUTH) [7]; alone at 7.5 g a.i./ha): 18
- Postemergence ABUTH Obs (velvetleaf (ABUTH) [7]; alone at 15 g a.i./ha): 73
- Preemergence ABUTH Obs (velvetleaf (ABUTH) [7]; alone at 15 g a.i./ha): 35
- Postemergence ABUTH Obs (velvetleaf (ABUTH) [7]; alone at 30 g a.i./ha): 81
- Preemergence ABUTH Obs (velvetleaf (ABUTH) [7]; alone at 30 g a.i./ha): 67
- Postemergence ABUTH Obs (velvetleaf (ABUTH) [7]; alone at 45 g a.i./ha): 86
- Preemergence ABUTH Obs (velvetleaf (ABUTH) [7]; alone at 45 g a.i./ha): 68
